Laboratory results published in patent publication US20220016060A1, “USE OF SODIUM 2-(3-PENTYLPHENYL)ACETATE IN THE TREATMENT OF ALSTRÖM SYNDROME” (LIMINAL BIOSCIENCES LIMITED, priority 2018, published 2022).
Several values for one entry are separate records, joined by “and”; a condition that tells them apart may be missing. Equal values may be shown once. Entries after “also recorded” stand apart in the source; their conditions may differ.

Tested on: ALMS patients
Experiment: Enhanced Liver Fibrosis (ELF) blood test
Assay type: in vivo, human
Design: increase in ELF test score from baseline / Change from Baseline ELF Test, Median / ELF Test score: scale not given here
Conditions: for Change from Baseline ELF Test, Mean (SD) / Change from Baseline ELF Test, Median / ELF Test score / Severity of Liver Fibrosis Based on ELF Test: 800 mg daily oral; for ELF Test score / Severity of Liver Fibrosis Based on ELF Test: individual subjects
Protocol: The study was a Phase 2, single-centre, single-arm, open-label study of sodium 2-(3-pentylphenyl)acetate administered at a total daily oral dose of 800 mg for up to 72 weeks in subjects with ALMS was undertaken. The initial duration of the study was 24 weeks, and subjects were offered to enrol into an extension phase of 36 or 48 weeks. The schedule of study procedures for the enrolment, intervention, and assessments for participants is outlined in FIG. 1. Sodium 2-(3-pentylphenyl)acetate was formulated in soft gelatine capsules containing 200 mg of Sodium 2-(3-pentylphenyl)acetate (amorphous powder) per capsule, polyethylene glycol 400, National Formulary (NF), hydrochloric acid (for pH adjustment), and water. The effect of sodium 2-(3-pentylphenyl)acetate on liver histology in ALMS patients was also assessed using the Enhanced Liver Fibrosis (ELF™) blood test. The ELF™ Blood Test combines three serum biomarkers (Hyaluronic acid (HA), Procollagen III amino terminal peptide (PIIINP), and Tissue inhibitor of metalloproteinase 1 (TIMP-1)) which, when correlated, are able to identify a quantifiable level of liver fibrosis.

[1] = Subject 826-001-001, 204-day break in treatment

## CCCCCc1cccc(CC(=O)[O-])c1.[Na+] [sodium 2-(3-pentylphenyl)acetate]
6/12 subjects
  subjects in whom ELF test score decreased from baseline: 50.0%
10/12 subjects
  subjects in whom severity of liver fibrosis based on the ELF test was stable or improved from baseline: 83.3%
EP Week 12 (Week 36), N=10
  Change from Baseline ELF Test, Mean (SD): −0.24 (1.056)
  Change from Baseline ELF Test, Median: −0.02
EP Week 24 (Week 48), N=9
  Change from Baseline ELF Test, Mean (SD): −0.22 (1.086)
  Change from Baseline ELF Test, Median: −0.13
EP Week 36 (Week 60), N=8
  Change from Baseline ELF Test, Mean (SD): −0.26 (1.193)
  Change from Baseline ELF Test, Median: −0.03
[1]
  change in severity of liver fibrosis based on ELF test: increase in liver fibrosis from moderate to severe
  increase in ELF test score from baseline: 1.36
Subject 826-001-004, 30-day break in treatment
  increase in ELF test score from baseline: 1.17
Week 12, N=12
  Change from Baseline ELF Test, Mean (SD): 0.02 (1.023)
  Change from Baseline ELF Test, Median: 0.24
Week 24, N=12
  Change from Baseline ELF Test, Mean (SD): −0.26 (0.933)
  Change from Baseline ELF Test, Median: 0.06
EP Week 12 (Week 36)
  ELF Test score: 9.13 and 8.68 and 7.68 and 8.19 and 6.80 and 9.92 and 8.48 and 11.58 and 8.75 and 8.73
  Severity of Liver Fibrosis Based on ELF Test: Mod (moderate fibrosis ≥ 7.7 to < 9.8); also recorded: NTM (None to mild fibrosis < 7.7); also recorded: Sev (severe fibrosis ≥ 9.8)
EP Week 24 (Week 48)
  ELF Test score: 10.30 and 8.00 and 6.98 and 7.45 and 6.95 and 8.36 and 11.14 and 8.76 and 8.74
  Severity of Liver Fibrosis Based on ELF Test: Sev (severe fibrosis ≥ 9.8); also recorded: Mod (moderate fibrosis ≥ 7.7 to < 9.8); also recorded: NTM (None to mild fibrosis < 7.7)
EP Week 36 (Week 60)
  ELF Test score: 10.28 and 8.42 and 7.16 and 9.90 and 8.50 and 10.79 and 8.64 and 8.74
  Severity of Liver Fibrosis Based on ELF Test: Sev (severe fibrosis ≥ 9.8); also recorded: Mod (moderate fibrosis ≥ 7.7 to < 9.8); also recorded: NTM (None to mild fibrosis < 7.7)
Week 12
  ELF Test score: 8.50 and 8.63 and 9.75 and 7.98 and 7.93 and 7.33 and 10.05 and 9.71 and 10.96 and 8.51 and 11.25 and 9.05
  Severity of Liver Fibrosis Based on ELF Test: Mod (moderate fibrosis ≥ 7.7 to < 9.8); also recorded: NTM (None to mild fibrosis < 7.7); also recorded: Sev (severe fibrosis ≥ 9.8)
Week 24
  ELF Test score: 9.31 and 9.02 and 8.60 and 7.14 and 7.26 and 7.31 and 10.39 and 8.41 (2×) and 10.69 and 8.47 and 11.29
  Severity of Liver Fibrosis Based on ELF Test: Mod (moderate fibrosis ≥ 7.7 to < 9.8); also recorded: NTM (None to mild fibrosis < 7.7); also recorded: Sev (severe fibrosis ≥ 9.8)
